We go through one molecule from ChEMBL document CHEMBL1133971, “EDTA bis-(ethyl phenylalaninate): a novel transition metal-ion chelating hydroxyl radical scavenger with a potential anti-inflammatory role” (Bioorg Med Chem Lett, 2001).

What is called inhibition is how much of the control response was suppressed.

Assay [1] in a line: Antioxidant efficacy as assessed by the deoxyribose assay at a concentration of 5.2 mM.
The nature of assay [2]: Antioxidant efficacy as assessed by the deoxyribose assay at a concentration of 1.040 mM.
A short description of assay [3]: Antioxidant efficacy as assessed by the deoxyribose assay in presence of EDTA (0.104 mM) and phenylalanine (0.208 mM).
Assay [4] in a line: Antioxidant efficacy as assessed by the deoxyribose assay at a concentration of 0.104 mM.

`CCOC(=O)C(Cc1ccccc1)NC(=O)CN(CCN(CC(=O)O)CC(=O)NC(Cc1ccccc1)C(=O)OCC)CC(=O)O` (centres undefined): the inhibition in assay [1] was 51%; in assay [2] it was 42%; in assay [3], 2%; in assay [4], 20%.
